The text below walks through data of PMC11093748, “De novo identification of CD4^+ T cell epitopes” (Nature Methods, 2024).

Holding throughout (assay): I-Ag7 SABR-II library screen, enrichment score
Assay type in all cases: cell-based, mouse

One assay concerns TCR10A. Conditions: TCR_Mean minus PREDICTED_TCR (from LIB_Mean, SLOPE 0.950997, INTERCEPT 1.20253e-5), PZ47. The source says: (§1) We then asked whether SABR-IIs could be used to present a library of epitopes for CD4^+ T cell antigen discovery. To that end, we constructed a SABR-II library to present epitopes derived from pancreatic islets in I-Ag7 by curating a list of 4,075 published epitopes from the Immune Epitope Database (iedb.org)[50] and a study by Wan et al.[51] (Supplementary Table 1). Of note, this defined library consisted of unmodified epitopes from endogenous proteins, synthetic mimotopes, deamidated epitopes and hybrid insulin peptides (HIPs) that arise from post-translational fusion and are not genetically encoded in vivo[52],[53]. The epitope library was inserted into the I-Ag7 SABR-II backbone through pooled oligonucleotide synthesis, amplification and ligation-free cloning (Extended Data Fig. 3a). The I-Ag7 SABR-II-library was then expressed in NFAT–GFP Jurkat cells. We confirmed that after sequencing, the library accounted for a mean of 708 reads per epitope (Extended Data Fig. 3b). As a proof of concept, we performed co-incubation assays with Jurkat cells expressing the BDC2.5 TCR and sorted the top 1–2% of GFP^+CD69^+ cells at a rate of ~20 min per replicate with three replicates per TCR. We extracted the genomic DNA from sorted cells, amplified the SABR portion of the integrated proviruses and subjected the amplicons to Illumina sequencing (Extended Data Fig. 3c,d). The 1–2% sort gate represents >50-fold enrichment of cognate epitopes with minimal loss of signal (Extended Data Fig. 3e–h). Sequence reads were aligned to the I-Ag7 SABR-II backbone and the corresponding epitopes were scored based on their read counts. For each TCR under investigation, an enrichment score (ES) was determined for all the epitopes in a library. In each experiment, three replicates of a sort with TCR-expressing Jurkat cells were performed and reads were counted post-sequencing. In addition, three replicates of the unsorted library were also sequenced. A linear regression model was built using the unsorted library counts and used to determine the expected abundance of each epitope in the library. The ES was calculated based on the difference between the measured and the expected abundance of each epitope on a per-TCR basis (Fig. 1e). Based on ES values, two quantitative thresholds were used to determine putative cognate epitopes of a given TCR. A high-confidence zone containing clear outliers with a high ES and a low-confidence zone containing weak outliers with a moderately high ES were determined (Fig. 1e). This two-tiered strategy was used to call putative hits from screens. All the top-scoring epitopes for the BDC2.5 TCR were known BDC2.5 ligands containing the WXRM(D/E) motif (Fig. 1f,g, enriched ligands in red), a well-characterized trait of the BDC2.5 TCR[43],[54]–[56]. Across several independent experiments there was limited variation in ES values for the same TCRs and several epitopes fell into high- or low-confidence zones consistently (Extended Data Fig. 4a). Using a different TCR that was isolated from NOD mice, 4-8Ins[57], which recognized the InsB9:23 epitope ([…]), we observed a similar pattern of ES for cognate epitopes (Extended Data Fig. 4b).
(§2) We performed systematic screening of the cloned TCRs against the I-Ag7 SABR-II library. Several TCRs along with a positive control (such as BDC2.5 or 4-8Ins) were screened individually against the library for each sort (Extended Data Fig. 6a and Supplementary Table 4). High- and low-confidence ES zones for each screened TCR were defined by the ES values of the control TCR’s cognate epitopes. For all putative cognate epitopes, single SABR-IIs were constructed, expressed in NFAT–GFP Jurkat cells and used for co-incubation with the corresponding TCRs. Co-incubation assays that yielded a GFP signal higher than that obtained in assays with no TCR were determined to be positive and the epitopes deemed true cognate ligands (Extended Data Fig. 6b,c). […]

The subject of the next assay is TCR10B. The conditions noted are these: TCR_Mean minus PREDICTED_TCR (from LIB_Mean, SLOPE 0.894516, INTERCEPT 2.58857e-5), PZ51.
Excerpt: as §1, §2

The subject of another assay is TCR11. The conditions noted are these: for Enrichment score: TCR11, TCR_Mean minus PREDICTED_TCR (from LIB_Mean, SLOPE 0.869084, INTERCEPT 3.21267e-5), PZ51.
Excerpt: as §1, §2

A further assay has as its system TCR15. The conditions noted are these: for Enrichment score: TCR15, TCR_Mean minus PREDICTED_TCR (from LIB_Mean, SLOPE 0.918454, INTERCEPT 2.00113e-5), PZ37.
Excerpt: as §1, §2

The test system of a further assay is TCR17C. Conditions: TCR_Mean minus PREDICTED_TCR (from LIB_Mean, SLOPE 0.897918, INTERCEPT 2.50509e-5), PZ52.
Excerpt: as §1, §2

A further assay deals with TCR17D. Conditions: TCR_Mean minus PREDICTED_TCR (from LIB_Mean, SLOPE 0.965121, INTERCEPT 8.55929e-6), PZ52.
Excerpt: as §1, §2

The next assay concerns TCR24. Conditions: for Enrichment score: TCR_Mean minus PREDICTED_TCR (slope 0.96363, intercept 8.9252e-6 on LIB_Mean), TCR 24, run PZ98.
Excerpt: as §1, §2

The next assay relates to TCR28. Conditions: TCR_Mean minus PREDICTED_TCR (slope 0.899229, intercept 2.47291e-5 on LIB_Mean), TCR 28, run PZ57.
Excerpt: as §1, §2

For the next assay, the system named is TCR30. Conditions: for Enrichment score: TCR_Mean minus PREDICTED_TCR (slope 0.934363, intercept 1.61073e-5 on LIB_Mean), TCR 30, run PZ98.
Excerpt: as §1, §2

The test system of a further assay is TCR37. The conditions noted are these: for Enrichment score: TCR_Mean minus PREDICTED_TCR (slope 0.904637, intercept 2.34021e-5 on LIB_Mean), TCR 37, run PZ57.
Excerpt: as §1, §2

The test system of a further assay is TCR38. The conditions noted are these: I-Ag7 SABR-II library PZ101, CD4 TCR 38; TCR_Mean of 3 replicates minus PREDICTED_TCR (slope 0.968274, intercept 7.78554e-6).
Excerpt: as §1, §2

Another assay relates to TCR4. The conditions noted are these: for Enrichment score: sheet TCR4-PZ44, ES = TCRObserved - TCRPredicted, TCRPredicted = LIBObserved x SLOPE + INTERCEPT, SLOPE 0.903208, INTERCEPT 2.37527e-5.
Excerpt: as §1, §2

With AAVEEGIVAGGGVTLL, the “Enrichment score” value was 0.0001778 with TCR10A; -7.785e-5 in the assay on TCR10B; 9.192e-5 in the assay on TCR11; -0.000165 in the assay with TCR15; -3.436e-5 with TCR17C; 9.065e-5 with TCR17D. Moreover, the “Enrichment score” value is on record as 0.0001615 with TCR24; -8.055e-6 in the assay with TCR28; -2.605e-6 in the assay on TCR30; -4.879e-5 in the assay with TCR37; 0.0001517 with TCR38; 3.881e-5 in the assay on TCR4.
For the sequence AEKVRNLPAGHGLNAQ, the “Enrichment score” value in the assay on TCR10A was -7.319e-5; in the assay on TCR10B it was -0.0001336; in the assay with TCR11, 0.0002492; in the assay with TCR15, 0.000168; in the assay on TCR17C, 2.049e-5; in the assay on TCR17D, -0.00018. Besides, the “Enrichment score” value is given as 0.0001713 in the assay on TCR24; 9.652e-5 in the assay with TCR28; 0.0001445 with TCR30; 0.0002899 in the assay with TCR37; -3.923e-5 with TCR38; -5.549e-7 with TCR4.
For the sequence AGGVAVIKAGAATEV, the “Enrichment score” value is -2.727e-5 with TCR10A; 1.586e-6 with TCR10B; -2.692e-5 with TCR11; 2.956e-5 in the assay with TCR15; -0.0001062 with TCR17C; -6.024e-5 in the assay with TCR17D. Further, the “Enrichment score” value with TCR24 is listed as -1.094e-5; with TCR28, 5.039e-6; in the assay with TCR30, -2.42e-5; with TCR37, -0.0001031; in the assay on TCR38, 4.352e-5; in the assay with TCR4, 2.046e-5.
As to AKAAVEEGIVAGGGV, the “Enrichment score” value in the assay with TCR10A is on record as -4.524e-5; with TCR10B it was 7.202e-5; in the assay on TCR11, 0.0001401; with TCR15, 1.733e-5; with TCR17C it was -5.707e-5; in the assay with TCR17D, -0.0001083. For the same sequence, the “Enrichment score” value is 2.968e-5 in the assay with TCR24; 0.000168 in the assay on TCR28; 8.616e-5 in the assay on TCR30; -6.503e-5 in the assay on TCR37; -6.1876e-5 in the assay on TCR38; -0.0001441 with TCR4.
Regarding ALVREGLRNVAAGANP, the “Enrichment score” value with TCR10A was -1.221e-5; with TCR10B, -2.589e-5; in the assay with TCR11 it was -3.213e-5; with TCR15, -2.061e-5; in the assay on TCR17C, -2.514e-5; in the assay on TCR17D, -8.6588e-6. The “Enrichment score” value is -8.9252e-6 in the assay with TCR24; -1.908e-5 with TCR28; -1.611e-5 in the assay on TCR30; -2.34e-5 in the assay on TCR37; -7.786e-6 in the assay on TCR38; -2.375e-5 with TCR4.
As to LQTLALNAARDP, the “recognition by TCR (screen hit, validated by single SABR-II co-incubation)” value with TCR15 (high-confidence zone) and in the assay on TCR4 (high-confidence zone) was “recognized” throughout.
On to SHLVEALYLVCGERG, for which the “recognition by TCR (screen hit, validated by single SABR-II co-incubation)” value is on record as “confirmation of reactivity” in the assay with TCR11 (low-confidence hit), “recognized” with TCR24 (high-confidence zone), “confirmation of reactivity” in the assay on TCR30 (low-confidence hit) and “recognized” in the assay with TCR37 (high-confidence zone).
